From PubChem BioAssay (NCI)
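Cultured in 96-well plates, cells were exposed to test compound for 48 hours across five concentrations. Here, GI50 denotes the concentration required for 50% inhibition of growth. TGI is the concentration that stops growth completely.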

Key:
Experiment in all cases: NCI-60 cell line screen, 48 h
SF-295 CNS = system: SF-295 CNS
OVCAR-4 ovarian = system: OVCAR-4 ovarian
NCI/ADR-RES ovarian = system: NCI/ADR-RES ovarian
SN12C renal = system: SN12C renal
MDA-MB-231 breast = system: MDA-MB-231 breast
PC-3 prostate = system: PC-3 prostate
OVCAR-8 ovarian = system: OVCAR-8 ovarian
UO-31 renal = system: UO-31 renal
UACC-257 melanoma = system: UACC-257 melanoma
HOP-92 NSCLC = system: HOP-92 NSCLC

Structure (SMILES)	GI50 (SF-295 CNS) [µM]	TGI (SF-295 CNS) [µM]	GI50 (OVCAR-4 ovarian) [µM]	TGI (OVCAR-4 ovarian) [µM]	GI50 (NCI/ADR-RES ovarian) [µM]	TGI (NCI/ADR-RES ovarian) [µM]	GI50 (SN12C renal) [µM]	TGI (SN12C renal) [µM]	GI50 (MDA-MB-231 breast) [µM]	TGI (MDA-MB-231 breast) [µM]	GI50 (PC-3 prostate) [µM]	TGI (PC-3 prostate) [µM]	GI50 (OVCAR-8 ovarian) [µM]	TGI (OVCAR-8 ovarian) [µM]	GI50 (UO-31 renal) [µM]	TGI (UO-31 renal) [µM]	GI50 (UACC-257 melanoma) [µM]	TGI (UACC-257 melanoma) [µM]	GI50 (HOP-92 NSCLC) [µM]	TGI (HOP-92 NSCLC) [µM]
O=C1NC(=O)C(c2ccccc2)=C1Nc1ccccc1	> 25	> 25	> 25	> 25	> 25	> 25	> 25	> 25	> 25	> 25	> 25	> 25	> 25	> 25	> 25	> 25	–	–	–	–
CC(C)OCc1cc(CN2CCN(c3cccc(Cl)c3)CC2)c(O)c2ncccc12	1.07	11.6	–	–	0.203	10.6	0.917	15.6	0.611	14.2	0.525	16.9	0.367	11.6	0.24	1.38	1.56	9.58	1.43	19.4
COc1cc2c(cc1OCCCCn1c(-c3cccs3)nc3ccccc31)N=C[C@@H]1CCCN1C2=O	–	–	1.61	4.67	3.24	13.9	2.5	8.65	1.39	5.22	–	–	2.58	> 100	1.23	5.34	2.54	5.9	1.33	5.46
Cn1c2cc([N+](=O)[O-])ccc2c(=O)c2c(O)cc3c(c21)C=CC(C)(C)O3	–	47.1	–	> 100	–	–	–	> 100	–	–	–	–	–	> 100	–	67.6	–	> 100	–	–
O=c1[nH]c(F)nc2c1ncn2C1OC(CO)C(O)C1O (stereo unspecified)	> 100	> 100	–	–	> 100	> 100	> 100	> 100	> 100	> 100	> 100	> 100	> 100	> 100	> 100	> 100	> 100	> 100	> 100	> 100
O=C([O-])CCc1ccccc1.O=C([O-])CCc1ccccc1.O=C([O-])CCc1ccccc1.O=C([O-])CCc1ccccc1.[Mo+2].[Mo+2]	> 100	> 100	> 100	> 100	–	–	> 100	> 100	–	–	–	–	> 100	> 100	> 100	> 100	> 100	> 100	43.4	> 100
CCC1c2cc3n(c(=O)c2COC1O)Cc1c-3nc2ccccc2c1Cl (stereo unspecified)	–	> 100	–	> 100	–	–	–	> 100	–	–	–	–	–	> 100	–	> 100	–	> 100	–	> 100
C=C(COC(C)=O)CC(/C=C(\C)CC/C=C(\C)CO)OC(C)=O (stereo unspecified)	–	> 100	–	> 100	–	–	–	> 100	–	–	–	–	–	> 100	–	> 100	–	–	–	> 100
N#Cc1c(-c2ccccc2)cc(-c2cccs2)c(C#N)c1N	–	> 100	–	> 100	–	–	–	> 100	–	–	–	–	–	> 100	–	–	–	> 100	–	> 100
NC(CO)c1ccc(OCc2ccccc2)cc1 (stereo unspecified)	–	> 100	–	> 100	–	–	–	> 100	–	–	–	–	–	> 100	–	> 100	–	> 100	–	98.1
COC(=O)c1nc(C(=O)OC)c2c([nH]c3ccccc32)c1C(=O)OC	–	> 100	–	–	–	–	–	> 100	–	–	–	–	–	> 100	–	75.9	–	> 100	–	> 100
CC(=O)OCC1OC([Se-])C(OC(C)=O)C(OC(C)=O)C1OC(C)=O.N#CCC[PH+](CCC#N)CCC#N.[Au+] (stereo unspecified)	13.7	35.9	13.8	65.8	–	–	6.33	31.9	–	–	–	–	12.7	> 93.5	8.41	42.1	5.93	13.6	12.1	52.2
CCc1cccc(CC)c1NC(=O)CC1SC(N)=NC1=O (stereo unspecified)	–	> 100	–	> 100	–	–	–	> 100	–	–	–	–	–	> 100	–	> 100	–	> 100	–	> 100
C=CCC12CCC(=O)[C@@]1(C)CC=C(O)C2=O (stereo partly specified)	–	> 100	–	> 100	–	–	–	> 100	–	–	–	–	–	> 100	–	> 100	–	> 100	–	> 100
O=c1c(O)cc2c(O)oc3c(=O)c(O)c(O)c4c(O)oc1c2c43	–	50.4	–	33.3	–	–	–	36.5	–	–	–	–	–	> 100	–	> 100	–	> 100	–	> 100
O=C(c1cccs1)c1nc2cc(Cl)ccc2[n+]([O-])c1C(F)(F)F	91.3	> 100	> 100	> 100	> 100	> 100	> 100	> 100	> 100	> 100	71.4	> 100	> 100	> 100	> 100	> 100	49.9	> 100	–	–
Cc1ccc(NC(=O)c2nc(S(C)(=O)=O)oc2-c2ccc(F)cc2)cc1Nc1ccc2ncn(C)c(=O)c2c1	16	31	–	–	3.14	15.7	–	–	1.64	3.15	2.13	4.47	–	–	1.93	3.4	1.88	3.72	1.91	3.87
COc1cc(C2C(C(=O)O)=C(COC(C)=O)Oc3cc4c(cc32)OCO4)cc(OC)c1OC(C)=O (stereo unspecified)	–	> 100	–	> 100	–	–	–	> 100	–	–	–	–	–	> 100	–	> 100	–	> 100	–	> 100
Cc1cc2c(cc1C)[n+](=O)c(C(=O)CC(=O)C(=O)Nc1ccccc1C(C)C)c(C)n2[O-]	–	> 100	–	> 100	–	–	–	> 100	–	–	–	–	–	> 100	–	> 100	–	5.82	–	> 100
